Test results published in US6482921B1, “Uridyl peptide antibiotic (UPA) derivatives, their synthesis and use” (Essential Therapeutics, Inc., priority 1999, dated 2002).
≈ marks a conversion by molar mass, not a printed value.

How the values were obtained:
[1] = system: Mycobacterium tuberculosis TN565; format: cell-based
[2] = system: Mycobacterium tuberculosis TN1618; format: cell-based

CC(C)C[C@H](NC(=O)N[C@@H](Cc1c[nH]c2ccccc12)C(=O)O)C(=O)N[C@H](C(=O)NC[C@H]1C[C@@H](O)[C@H](n2ccc(=O)[nH]c2=O)O1)[C@H](C)N(C)C(=O)CN [Compound 109]
MIC TN565 (RESISTANT) [1]: 10 µg/mL (≈ 13.5 µM) | MIC TN1618 (RESISTANT) [2]: 10 µg/mL (≈ 13.5 µM)

CSCCC(NC(=O)NC(Cc1ccc(O)cc1)C(=O)O)C(=O)NC(C(=O)NCC1CC(O)C(n2ccc(=O)[nH]c2=O)O1)C(C)N(C)C(=O)C(C)N [Compound 115, 1-[5′[(2S,3S)-N^3-L-Alanyl-N^2-[N-[[(1S)-1-carboxy-4-hydroxyphenethyl)-carbamoyl]-L-methionyl]-N^3-methyl-2,3-diaminobutyramido]-3′,5′-dideoxy-α-L-arabinofuranosyl]uracil]
MIC TN565 (RESISTANT) [1]: >30 µg/mL | MIC TN1618 (RESISTANT) [2]: 30 µg/mL (≈ 40 µM)

CC(N)C(=O)N(C)C(C)C(NC(=O)C(Cc1ccccc1)NC(=O)NC(Cc1ccc2ccccc2c1)C(=O)O)C(=O)NCC1CC(O)C(n2ccc(=O)[nH]c2=O)O1 [Compound 133, 1-[5′-[(2S,3S)-N^3-L-Alanyl-N^2-[N-[[(1S)-1-carboxy-2-naphthalenethyl]carbamoyl]-L-phenylalanyl]-N^3-methyl-2,3-diaminobutyramido]-3′,5′-dideoxy-α-L-arabinofuranosyl]uracil]
MIC TN565 (RESISTANT) [1]: 30 µg/mL (≈ 37.5 µM) | MIC TN1618 (RESISTANT) [2]: 10 µg/mL (≈ 12.5 µM)

CC(N)C(=O)N(C)C(C)C(NC(=O)C(Cc1ccc(C(F)(F)F)cc1)NC(=O)NC(Cc1c[nH]c2ccccc12)C(=O)O)C(=O)NCC1CC(O)C(n2ccc(=O)[nH]c2=O)O1 [Compound 146, 1-[5′-[(2S,3S)-N^3-L-Alanyl-N^2-[N-[[(1S)-1-carboxy-2-indol-3-ylethyl]carbamoyl]-L-4-(trifluoromethyl)phenylalanyl]-N^3-methyl-2,3-diaminobutyramido]-3′,5′-dideoxy-α-L-arabinofuranosyl]uracil]
MIC TN565 (RESISTANT) [1]: 10 µg/mL (≈ 11.7 µM) | MIC TN1618 (RESISTANT) [2]: 10 µg/mL (≈ 11.7 µM)

CC(N)C(=O)N(C)C(C)C(NC(=O)C(Cc1ccc(-c2ccccc2)cc1)NC(=O)NC(Cc1c[nH]c2ccccc12)C(=O)O)C(=O)NCC1CC(O)C(n2ccc(=O)[nH]c2=O)O1 [Compound 155, 1-[5′-[(2S,3S)-N^3-L-Alanyl-N^2-[N-[[(1S)-1-carboxy-2-indol-3-ylethyl)carbamoyl]-L-4-biphenylalanyl]-N^3-methyl-2,3-diaminobutyramidol-3′,5′-dideoxy-α-L-arabinofuranosyl]uracil]
MIC TN565 (RESISTANT) [1]: 10 µg/mL (≈ 11.5 µM) | MIC TN1618 (RESISTANT) [2]: 10 µg/mL (≈ 11.5 µM)

CC(N)C(=O)N(C)C(C)C(NC(=O)C(Cc1ccc(F)cc1)NC(=O)NC(Cc1ccc(O)cc1)C(=O)O)C(=O)NCC1CC(O)C(n2ccc(=O)[nH]c2=O)O1 [Compound 157, 1-[5′-[(2S,3S)-N^3-L-Alanyl-N^2-[N-[[(1S)-1-carboxy-4-hydroxyphenethyl]carbamoyl]-L-4-fluorophenylalanyl]-N^3-methyl-2,3-diaminobutyramido]-3′,5′-dideoxy-α-L-arabinofuranosyl]uracil]
MIC TN565 (RESISTANT) [1]: 10 µg/mL (≈ 12.7 µM) | MIC TN1618 (RESISTANT) [2]: 10 µg/mL (≈ 12.7 µM)

CC(N)C(=O)N(C)C(C)C(NC(=O)C(Cc1ccc(F)cc1)NC(=O)NC(Cc1c[nH]c2ccccc12)C(=O)O)C(=O)NCC1CC(O)C(n2ccc(=O)[nH]c2=O)O1 [Compound 158, 1-[5′-[(2S,3S)-N^3-L-Alanyl-N^2-[N-[[(1S)-1-carboxy-2-indol-3-ylethyl]carbamoyl]-L-4-fluorophenylalanyl]-N^3-methyl-2,3-diaminobutyramidol-3′,5′-dideoxy-α-L-arabinofuranosyl]uracil]
MIC TN565 (RESISTANT) [1]: 10 µg/mL (≈ 12.4 µM) | MIC TN1618 (RESISTANT) [2]: 10 µg/mL (≈ 12.4 µM)

CC(C)CC(N)C(=O)N(C)C(C)C(NC(=O)C(Cc1ccccc1)NC(=O)NC(Cc1c[nH]c2ccccc12)C(=O)O)C(=O)NCC1CC(O)C(n2ccc(=O)[nH]c2=O)O1 [Compound 159, 1-[5′-[(2S,3S)-N^2-[N-[[(1S)-1-Carboxy-2-indol-3-ylethyl]carbamoyl]-L-phenylalanyl]l-N^3-L-leucyl-N^3-methyl-2,3-diaminobutyramido]-3′,5′-dideoxy-α-L-arabinofuranosyl]uracil]
MIC TN565 (RESISTANT) [1]: 30 µg/mL (≈ 36.1 µM) | MIC TN1618 (RESISTANT) [2]: 10 µg/mL (≈ 12 µM)

CC(N)C(=O)N(C)C(C)C(NC(=O)C(Cc1ccccc1)NC(=O)NC(Cc1c[nH]c2ccccc12)C(=O)O)C(=O)NCC1CC(O)C(n2ccc(=O)[nH]c2=O)O1 [Compound 164, 1-[5′-[(2S,3S)-N^3-L-Alanyl-N^2-[N-[[(1S)-1-carboxy-2-indol-3-ylethyl]carbamoyl]-L-phenylalanyl]-N^3-methyl-2,3-diaminobutyramido]-3′,5′-dideoxy-α-L-arabinofuranosyl]uracil]
MIC TN565 (RESISTANT) [1]: 10 µg/mL (≈ 12.7 µM) | MIC TN1618 (RESISTANT) [2]: 10 µg/mL (≈ 12.7 µM)

C[C@H](NC(=O)N[C@@H](Cc1c[nH]c2ccccc12)C(=O)O)C(=O)N[C@H](C(=O)N/C=C1/C[C@@H](O)[C@H](n2ccc(=O)[nH]c2=O)O1)[C@H](C)N(C)C(=O)[C@@H](N)Cc1cccc(O)c1 [Pacidamycin 4, reference compound]
MIC TN565 (RESISTANT) [1]: >30 µg/mL | MIC TN1618 (RESISTANT) [2]: >30 µg/mL
